Source: PubChem BioAssay (NCI)
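Results reflect a 48-hour exposure of cells in 96-well plates to compound at five concentrations. TGI: concentration producing complete growth inhibition.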

What was measured:
Assay in all cases: NCI anticancer screen, dose series, 48 h
786-0 renal = tested on: 786-0 renal
A498 renal = tested on: A498 renal
A549 NSCLC = tested on: A549 NSCLC
ACHN renal = tested on: ACHN renal
BT-549 breast = tested on: BT-549 breast
CAKI-1 renal = tested on: CAKI-1 renal
CCRF-CEM leukemia = tested on: CCRF-CEM leukemia
COLO 205 colon = tested on: COLO 205 colon
DU-145 prostate = tested on: DU-145 prostate
EKVX NSCLC = tested on: EKVX NSCLC
HCC-2998 colon = tested on: HCC-2998 colon
HCT-116 colon = tested on: HCT-116 colon
HCT-15 colon = tested on: HCT-15 colon
HL-60(TB) leukemia = tested on: HL-60(TB) leukemia
HOP-62 NSCLC = tested on: HOP-62 NSCLC
HOP-92 NSCLC = tested on: HOP-92 NSCLC
HS 578T breast = tested on: HS 578T breast
HT29 colon = tested on: HT29 colon
IGROV1 ovarian = tested on: IGROV1 ovarian
K-562 leukemia = tested on: K-562 leukemia
KM12 colon = tested on: KM12 colon
LOX IMVI melanoma = tested on: LOX IMVI melanoma
M14 melanoma = tested on: M14 melanoma
MALME-3M melanoma = tested on: MALME-3M melanoma
MCF7 breast = tested on: MCF7 breast
MDA-MB-231 breast = tested on: MDA-MB-231 breast
MDA-MB-435 = tested on: MDA-MB-435
MDA-N = tested on: MDA-N
MOLT-4 leukemia = tested on: MOLT-4 leukemia
NCI-H226 lung = tested on: NCI-H226 lung
NCI-H23 lung = tested on: NCI-H23 lung
NCI-H460 lung = tested on: NCI-H460 lung
NCI-H522 lung = tested on: NCI-H522 lung
NCI/ADR-RES ovarian = tested on: NCI/ADR-RES ovarian
OVCAR-3 ovarian = tested on: OVCAR-3 ovarian
OVCAR-4 ovarian = tested on: OVCAR-4 ovarian
OVCAR-5 ovarian = tested on: OVCAR-5 ovarian
OVCAR-8 ovarian = tested on: OVCAR-8 ovarian
PC-3 prostate = tested on: PC-3 prostate
RPMI-8226 leukemia = tested on: RPMI-8226 leukemia
RXF 393 renal = tested on: RXF 393 renal
SF-268 CNS = tested on: SF-268 CNS
SF-295 CNS = tested on: SF-295 CNS
SK-MEL-2 melanoma = tested on: SK-MEL-2 melanoma
SK-MEL-5 melanoma = tested on: SK-MEL-5 melanoma
SK-OV-3 ovarian = tested on: SK-OV-3 ovarian
SN12C renal = tested on: SN12C renal
SNB-19 CNS = tested on: SNB-19 CNS
SNB-75 CNS = tested on: SNB-75 CNS
SR leukemia = tested on: SR leukemia
SW-620 colon = tested on: SW-620 colon
T-47D breast = tested on: T-47D breast
TK-10 renal = tested on: TK-10 renal
U251 CNS = tested on: U251 CNS
UACC-257 melanoma = tested on: UACC-257 melanoma
UACC-62 melanoma = tested on: UACC-62 melanoma
UO-31 renal = tested on: UO-31 renal
SF-539 CNS = tested on: SF-539 CNS
SK-MEL-28 melanoma = tested on: SK-MEL-28 melanoma

**Q.** For `Clc1ccc(Nc2nc(Cl)c3[nH]cnc3n2)cc1Cl`, which TGI (786-0 renal) is on record?
**A.** Its TGI is 30.8 µM.

**Q.** What about the TGI (A498 renal) of the same molecule?
**A.** Its TGI is 34.9 µM.

**Q.** And the TGI (A549 NSCLC)?
**A.** The TGI was over 100 µM.

**Q.** And the TGI (ACHN renal)?
**A.** Its TGI is over 100 µM.

**Q.** What about the TGI (BT-549 breast) of the same molecule?
**A.** Its TGI is 79.1 µM.

**Q.** What about the TGI (CAKI-1 renal) of the same molecule?
**A.** The TGI was 16.6 µM.

**Q.** And the TGI (CCRF-CEM leukemia)?
**A.** Its TGI is 48.2 µM.

**Q.** What about the TGI (COLO 205 colon) of the same molecule?
**A.** Its TGI is 37.9 µM.

**Q.** What about the TGI (DU-145 prostate) of the same molecule?
**A.** Its TGI is over 100 µM.

**Q.** And the TGI (EKVX NSCLC)?
**A.** The TGI was 49.1 µM.

**Q.** And the TGI (HCC-2998 colon)?
**A.** Its TGI is 31.1 µM.

**Q.** What about the TGI (HCT-116 colon) of the same molecule?
**A.** Its TGI is 86.7 µM.

**Q.** And the TGI (HCT-15 colon)?
**A.** The TGI was 87.5 µM.

**Q.** And the TGI (HL-60(TB) leukemia)?
**A.** Its TGI is 47.7 µM.

**Q.** And the TGI (HOP-62 NSCLC)?
**A.** The TGI was 52.5 µM.

**Q.** What about the TGI (HOP-92 NSCLC) of the same molecule?
**A.** The TGI was 53.4 µM.

**Q.** What about the TGI (HS 578T breast) of the same molecule?
**A.** The TGI was 56.3 µM.

**Q.** What about the TGI (HT29 colon) of the same molecule?
**A.** Its TGI is 43.9 µM.

**Q.** And the TGI (IGROV1 ovarian)?
**A.** Its TGI is over 100 µM.

**Q.** What about the TGI (K-562 leukemia) of the same molecule?
**A.** Its TGI is over 100 µM.

**Q.** And the TGI (KM12 colon)?
**A.** Its TGI is 64.7 µM.

**Q.** What about the TGI (LOX IMVI melanoma) of the same molecule?
**A.** Its TGI is 34.1 µM.

**Q.** What about the TGI (M14 melanoma) of the same molecule?
**A.** Its TGI is over 100 µM.

**Q.** And the TGI (MALME-3M melanoma)?
**A.** The TGI was over 100 µM.

**Q.** And the TGI (MCF7 breast)?
**A.** The TGI was over 100 µM.

**Q.** And the TGI (MDA-MB-231 breast)?
**A.** Its TGI is 51.9 µM.

**Q.** What about the TGI (MDA-MB-435) of the same molecule?
**A.** Its TGI is 80.3 µM.

**Q.** And the TGI (MDA-N)?
**A.** The TGI was over 100 µM.

**Q.** And the TGI (MOLT-4 leukemia)?
**A.** The TGI was 61.3 µM.

**Q.** And the TGI (NCI-H226 lung)?
**A.** The TGI was over 100 µM.

**Q.** And the TGI (NCI-H23 lung)?
**A.** The TGI was 73.2 µM.

**Q.** And the TGI (NCI-H460 lung)?
**A.** The TGI was 62.7 µM.

**Q.** And the TGI (NCI-H522 lung)?
**A.** The TGI was 56.7 µM.

**Q.** What about the TGI (NCI/ADR-RES ovarian) of the same molecule?
**A.** Its TGI is over 100 µM.

**Q.** What about the TGI (OVCAR-3 ovarian) of the same molecule?
**A.** The TGI was 61 µM.

**Q.** And the TGI (OVCAR-4 ovarian)?
**A.** The TGI was over 100 µM.

**Q.** And the TGI (OVCAR-5 ovarian)?
**A.** The TGI was over 100 µM.

**Q.** What about the TGI (OVCAR-8 ovarian) of the same molecule?
**A.** The TGI was over 100 µM.

**Q.** And the TGI (PC-3 prostate)?
**A.** The TGI was 66.2 µM.

**Q.** And the TGI (RPMI-8226 leukemia)?
**A.** The TGI was 83 µM.

**Q.** And the TGI (RXF 393 renal)?
**A.** The TGI was 81.2 µM.

**Q.** What about the TGI (SF-268 CNS) of the same molecule?
**A.** The TGI was 91.3 µM.

**Q.** What about the TGI (SF-295 CNS) of the same molecule?
**A.** The TGI was 79.7 µM.

**Q.** And the TGI (SK-MEL-2 melanoma)?
**A.** Its TGI is 59.5 µM.

**Q.** And the TGI (SK-MEL-5 melanoma)?
**A.** Its TGI is 52.1 µM.

**Q.** And the TGI (SK-OV-3 ovarian)?
**A.** The TGI was over 100 µM.

**Q.** And the TGI (SN12C renal)?
**A.** The TGI was over 100 µM.

**Q.** And the TGI (SNB-19 CNS)?
**A.** Its TGI is over 100 µM.

**Q.** And the TGI (SNB-75 CNS)?
**A.** Its TGI is 52.3 µM.

**Q.** What about the TGI (SR leukemia) of the same molecule?
**A.** The TGI was 55.7 µM.

**Q.** And the TGI (SW-620 colon)?
**A.** Its TGI is over 100 µM.

**Q.** What about the TGI (T-47D breast) of the same molecule?
**A.** Its TGI is 80.4 µM.

**Q.** What about the TGI (TK-10 renal) of the same molecule?
**A.** The TGI was over 100 µM.

**Q.** And the TGI (U251 CNS)?
**A.** The TGI was over 100 µM.

**Q.** And the TGI (UACC-257 melanoma)?
**A.** Its TGI is 83.3 µM.

**Q.** And the TGI (UACC-62 melanoma)?
**A.** Its TGI is over 100 µM.

**Q.** And the TGI (UO-31 renal)?
**A.** The TGI was 66.6 µM.

**Q.** Which results are given for `N#Cc1c(-c2ccccc2)c(N=Nc2ccc(F)cc2)c(=O)n2c1[nH]c1ccccc12`?
**A.** TGI (786-0 renal): 14.3 µM; TGI (A498 renal): 41 µM; TGI (A549 NSCLC): 19.3 µM; TGI (ACHN renal): > 64.6 µM; TGI (BT-549 breast): 89.2 µM; TGI (CAKI-1 renal): 16.4 µM; TGI (CCRF-CEM leukemia): 7.57 µM; TGI (COLO 205 colon): 13 µM; TGI (DU-145 prostate): > 100 µM; TGI (EKVX NSCLC): 41.3 µM; TGI (HCC-2998 colon): > 100 µM; TGI (HCT-116 colon): 14.2 µM; TGI (HCT-15 colon): > 100 µM; TGI (HL-60(TB) leukemia): 3.68 µM; TGI (HOP-62 NSCLC): 29.3 µM; TGI (HOP-92 NSCLC): 14.2 µM; TGI (HS 578T breast): 31.4 µM; TGI (HT29 colon): 12 µM; TGI (IGROV1 ovarian): 35.7 µM; TGI (K-562 leukemia): 17.9 µM; TGI (KM12 colon): 65 µM; TGI (LOX IMVI melanoma): > 100 µM; TGI (M14 melanoma): 27.3 µM; TGI (MALME-3M melanoma): 72.5 µM; TGI (MCF7 breast): > 100 µM; TGI (MDA-MB-231 breast): > 50.9 µM; TGI (MDA-MB-435): > 100 µM; TGI (MDA-N): 52.9 µM; TGI (MOLT-4 leukemia): 7.78 µM; TGI (NCI-H226 lung): 39.1 µM; TGI (NCI-H23 lung): > 75.7 µM; TGI (NCI-H460 lung): 19.9 µM; TGI (NCI-H522 lung): 14.7 µM; TGI (NCI/ADR-RES ovarian): 20.6 µM; TGI (OVCAR-3 ovarian): 8.57 µM; TGI (OVCAR-4 ovarian): 31.5 µM; TGI (OVCAR-5 ovarian): 50.5 µM; TGI (OVCAR-8 ovarian): 24 µM; TGI (PC-3 prostate): > 35.2 µM; TGI (RPMI-8226 leukemia): 12.9 µM; TGI (RXF 393 renal): 44.6 µM; TGI (SF-268 CNS): 39.5 µM; TGI (SF-295 CNS): 24.8 µM; TGI (SF-539 CNS): 32.2 µM; TGI (SK-MEL-2 melanoma): > 100 µM; TGI (SK-MEL-28 melanoma): > 100 µM; TGI (SK-MEL-5 melanoma): 4.94 µM; TGI (SK-OV-3 ovarian): 31.5 µM; TGI (SN12C renal): 10.2 µM; TGI (SNB-19 CNS): 33.5 µM; TGI (SNB-75 CNS): 39.4 µM; TGI (SR leukemia): 55.8 µM; TGI (SW-620 colon): > 100 µM; TGI (T-47D breast): 40.8 µM; TGI (TK-10 renal): 25.8 µM; TGI (U251 CNS): 18.1 µM; TGI (UACC-257 melanoma): > 100 µM; TGI (UACC-62 melanoma): 26.3 µM; TGI (UO-31 renal): 20.6 µM
